{"source": "patent US20240197700A1", "about": "“Methods and Compositions for Treating Lysosomal Storage Disorders” (Sanford Health, priority 2021, published 2024)", "system": "Cln2^R207X mice", "experiment": "SubC burden (immunohistochemistry) in brain of Cln2^R207X mice", "format": "in vivo, mouse", "conditions": "for Subunit C burden: somatosensory cortex", "method": "Specific experimental details are included in figure legends. In general, after collection and preparation, MEFs and PNCs were dosed with vehicle or AF38469 (40 nM, 400 nM. or 4 μM) on DIV3 and DIV5. On DIV7, cells were treated with the following dyes: Hoechst 33342 (1:1000 dilution), LysoTrackerT™ Red DND-99 (1:10,000 dilution), fixed, and imaged. Mice were given vehicle or AF38469 (78.125 μg/ml, 3.125 μg/ml, 0.3125 μg/ml or 0.03125 μg/ml equating approximately to 250 μg/mouse/day, 10 μg/mouse/day, 1 μg/mouse/day, and […], respectively, given a mouse's daily water intake of approximately 3.2 ml per day) in drinking water beginning at wean. Body weight was measured bi-weekly, and a force actimeter test was performed on Cln2^R207X mice at 10 weeks of age. Body weight was measured every month for Cln3^Δex7/8 mice. At 11 and 16 weeks of age, respectively, Cln2^R207X and Cln3^Δex7/8 mice along with age matched wild type control mice were CO2 euthanized and intracardially perfused with PBS. Brains were collected and placed on a 1 mm sagittal brain block. Brains were sliced at the midline and 3 mm right of the midline. One hemisphere was fixed in 4% PFA and sectioned at 50 microns on a vibratome. Immunohistochemistry was performed on free-floating sections. For mitochondrial ATP synthase subunit C (SubC), glial fibrillary acidic protein (GFAP), and cluster of differentiation 68 (CD68) immunolabeling, primary antibodies included anti-SubC (Abcam, ab181243; 1:1000), anti-GFAP (Dako, Z0334; 1:5000), anti-CD68 (AbD Serotec, MCA1957; 1:2000), and secondary antibodies included anti-rabbit biotinylated (Vector Labs, BA-1000 1:1000) and anti-rat (Vector Labs, BA-9400 1:1000). Coverslips were mounted on slides using antifade-mounting media and were stored in the dark before imaging. Sections were imaged and analyzed using an Aperio Digital Pathology Slide Scanner (AT2) and associated software. Images were extracted from S1BF of the somatosensory cortex and the VPM/VPL of the thalamus, with multiple images taken of multiple tissues from each animal.\nShort-term chronic treatment with AF38469 reduces storage material burden in Cln2^R207X and Cln3^Δex7/8 mice. Beginning at wean, wild type and Cln2^R207X mice were treated with vehicle (0.2408% DMSO) or AF38469 (0.03125 μg/ml, 0.3125 μg/ml, 3.125 μg/ml, 78.125 μg/ml) continuously through the drinking water continuing until sacrifice at 11 weeks. […] Sections were imaged and analyzed using an Aperio Digital Pathology Slide Scanner (AT2) and associated software. […] Percent area of immunoreactivity were quantified using a threshold analysis in ImageJ™. […]", "data": [{"compound": "Cc1cccc(NC(=O)c2ccc(C(F)(F)F)cc2C(=O)O)n1", "note": "[AF38469, 2-((6-methylpyridin-2-yl)carbamoyl)-5-(trifluoromethyl)benzoic acid]", "values": [{"measurement": "Subunit C burden", "setting": "0.03125 μg/ml, 0.3125 μg/ml in drinking water, 11 weeks", "result": "significantly decreased"}, {"measurement": "SubC burden", "setting": "3.125 μg/ml, 78.125 μg/ml in drinking water, VPM/VPL of the thalamus, 11 weeks, vs vehicle Cln2^R207X", "result": "did not have an impact"}, {"measurement": "Subunit C burden", "setting": "78.125 μg/ml in drinking water, 11 weeks", "result": "significantly decreased"}, {"measurement": "SubC accumulation", "setting": "overall statement, short term treatment, Cln2^R207X", "result": "reduces"}]}]}
